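Briefly, cells in 96-well plates were exposed to five compound concentrations for 48 h, and endpoints were estimated by linear interpolation. GI50 marks 50% less growth. The concentration for full growth arrest is given as TGI.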

The first assay has as its system 786-0 renal. The experiment in a line: NCI anticancer screen, dose series, 48 h.
Consider `CCOC(=O)NC(=O)c1cn(CCCO)c(=O)[nH]c1=O`, for which the TGI was greater than 100 µM.
In turn, `CCN1c2ccccc2C(C(SC)S(=O)(=O)c2ccc(C)cc2)c2c1[nH]c(=O)n(C)c2=O` (stereo not given) came in with a TGI greater than 100 µM.
Same read-out and setting: for `COc1ccc(S(=O)(=O)NNS(C)(=O)=O)cc1` the value was greater than 100 µM.
Turning to `Nc1ncnc2c1nnn2C1OC(CO)C(O)C1O` (stereo not given), the GI50 is 0.38 µM and the TGI came out at 14 µM.
Turning to `CC(=O)OC1COC(n2ccc3cc(Br)c([N+](=O)[O-])cc32)C(OC(C)=O)C1OC(C)=O` (stereo not given), the TGI was determined as 97.9 µM.
Same read-out and setting: in the case of `Cn1cnc([N+](=O)[O-])c1Sc1nc2ccccc2[nH]1` it was greater than 100 µM; in that of `COc1cc2c(c(OC)c1OC)-c1ccc(OC)c(=O)cc1C(NC(=O)c1ccc(N=[N+]=[N-])cc1)CC2` (stereo not given), greater than 100 µM; in that of `CCCCCCCCC/C=C1\CCC(CN2CCOCC2)C1=O` (stereo not given), 9.69 µM.
Still for that read-out and setting: in the case of `C/C(=N\NC(=S)NC(CCC(=O)O)C(=O)O)c1ccccn1` (stereo not given) it was greater than 100 µM; in that of `CCOC(=O)C(=C=C=C(c1ccccc1)c1ccccc1)C(=O)OCC`, 32 µM.
On the same count and under the same terms, in the case of `Cn1c2ccccc2c2cc(-c3ccccc3)c3c(c21)C(=O)c1ccccc1C3=O` it was 35.7 µM; in that of `OCc1ccc(-c2ccc(-c3ccc(CO)s3)o2)s1`, greater than 85.8 µM.
Molecule `c1ccc(COc2cccc3ccc[n+](Cc4ccccc4)c23)cc1` had a TGI of 84.6 µM.
`CN(C)c1ccc(/C=C(\NC(=O)c2ccccc2)c2nc3ncncc3[nH]2)cc1` came in with a TGI greater than 100 µM.
On the same count and under the same terms, in the case of `CCOC(=O)CC(=O)ON(C)C(C)=O` it was greater than 100 µM.
Same read-out and setting: in the case of `CCc1cc(Cc2cc(CC)c(NC(=O)C(=O)Cc3ccccn3)c(CC)c2Cl)c(Cl)c(CC)c1NC(=O)C(=O)Cc1ccccn1` it was greater than 100 µM; in that of `CC(C)OP(=O)(OC(C)C)C(=NCCN=C(NNc1ccc([N+](=O)[O-])cc1)P(=O)(OC(C)C)OC(C)C)NNc1ccc([N+](=O)[O-])cc1`, greater than 100 µM.
On the same count and under the same terms, for `COC(OC)C(C)CC(=O)N(C)C` (stereo not given) the value was greater than 100 µM; for `CC(C)=Cc1cc(C(=O)Nc2ccc(Cl)c(Cl)c2)nc(N)n1`, greater than 100 µM; for `C#CC1(O)CCC2C3CCc4cc(Oc5nc(F)nc(-c6c7ccccc7c7sc8ccccc8n67)n5)ccc4C3CC[C@@]21C` (stereo not given in full), greater than 100 µM.
As to `CC(=O)/C(=C\c1cccc([N+](=O)[O-])c1)C(=O)Nc1ccccc1C`, the TGI was greater than 100 µM.
`Clc1ccc(C(c2ccc(Cl)cc2)c2ccccn2)cc1`: the TGI came to 30.6 µM.
The same measure, in the same setting: for `C[Si](C)(C)C1(Sc2ccccc2)SCCCS1` the value was greater than 100 µM; for `CC(C)(C)OC(=O)N[C@H]1CC2(C=C(Cl)C(=O)C(Cl)=C2)OC1=O`, 28.6 µM.
The same measure, in the same setting: in the case of `O=c1cc(-c2ccccc2)oc2cc(OCCCOc3ccc4c(=O)cc(-c5ccccc5)oc4c3)ccc12` it was greater than 100 µM.

A further assay concerns CCRF-CEM leukemia. The assay can be described thus: NCI anticancer screen, dose series, 48 h.
In the case of `CCOC(=O)NC(=O)c1cn(CCCO)c(=O)[nH]c1=O`, the TGI was greater than 100 µM.
Same read-out and setting: in the case of `CCN1c2ccccc2C(C(SC)S(=O)(=O)c2ccc(C)cc2)c2c1[nH]c(=O)n(C)c2=O` (stereo not given) it was greater than 100 µM.
The same measure, in the same setting: for `COc1ccc(S(=O)(=O)NNS(C)(=O)=O)cc1` the value was greater than 100 µM.
Same read-out and setting: for `Nc1ncnc2c1nnn2C1OC(CO)C(O)C1O` (stereo not given) the value was 27.9 µM.
For `CC(=O)OC1COC(n2ccc3cc(Br)c([N+](=O)[O-])cc32)C(OC(C)=O)C1OC(C)=O` (stereo not given), the TGI came to 81.7 µM.
Still for that read-out and setting: in the case of `Cn1cnc([N+](=O)[O-])c1Sc1nc2ccccc2[nH]1` it was 90.1 µM.
`COc1cc2c(c(OC)c1OC)-c1ccc(OC)c(=O)cc1C(NC(=O)c1ccc(N=[N+]=[N-])cc1)CC2` (stereo not given): the TGI was greater than 24.5 µM.
Same read-out and setting: for `CCCCCCCCC/C=C1\CCC(CN2CCOCC2)C1=O` (stereo not given) the value was 6.56 µM; for `C/C(=N\NC(=S)NC(CCC(=O)O)C(=O)O)c1ccccn1` (stereo not given), greater than 100 µM; for `CCOC(=O)C(=C=C=C(c1ccccc1)c1ccccc1)C(=O)OCC`, 15.1 µM.
Same read-out and setting: in the case of `Cn1c2ccccc2c2cc(-c3ccccc3)c3c(c21)C(=O)c1ccccc1C3=O` it was 33 µM; in that of `OCc1ccc(-c2ccc(-c3ccc(CO)s3)o2)s1`, 72.2 µM.
The same measure, in the same setting: for `c1ccc(COc2cccc3ccc[n+](Cc4ccccc4)c23)cc1` the value was greater than 100 µM; for `CN(C)c1ccc(/C=C(\NC(=O)c2ccccc2)c2nc3ncncc3[nH]2)cc1`, greater than 100 µM; for `CCOC(=O)CC(=O)ON(C)C(C)=O`, greater than 100 µM.
`CCc1cc(Cc2cc(CC)c(NC(=O)C(=O)Cc3ccccn3)c(CC)c2Cl)c(Cl)c(CC)c1NC(=O)C(=O)Cc1ccccn1` came in with a TGI greater than 100 µM.
On the same count and under the same terms, in the case of `CC(C)OP(=O)(OC(C)C)C(=NCCN=C(NNc1ccc([N+](=O)[O-])cc1)P(=O)(OC(C)C)OC(C)C)NNc1ccc([N+](=O)[O-])cc1` it was greater than 100 µM; in that of `COC(OC)C(C)CC(=O)N(C)C` (stereo not given), greater than 100 µM.
On the same count and under the same terms, for `C#CC1(O)CCC2C3CCc4cc(Oc5nc(F)nc(-c6c7ccccc7c7sc8ccccc8n67)n5)ccc4C3CC[C@@]21C` (stereo not given in full) the value was greater than 100 µM.
On the same count and under the same terms, for `CC(=O)/C(=C\c1cccc([N+](=O)[O-])c1)C(=O)Nc1ccccc1C` the value was greater than 100 µM.
Regarding `Clc1ccc(C(c2ccc(Cl)cc2)c2ccccn2)cc1`, the TGI came out at 48.1 µM.
Still for that read-out and setting: in the case of `C[Si](C)(C)C1(Sc2ccccc2)SCCCS1` it was 77.8 µM; in that of `CC(C)(C)OC(=O)N[C@H]1CC2(C=C(Cl)C(=O)C(Cl)=C2)OC1=O`, 5.4 µM; in that of `O=c1cc(-c2ccccc2)oc2cc(OCCCOc3ccc4c(=O)cc(-c5ccccc5)oc4c3)ccc12`, greater than 100 µM.

In the next assay the test system is DMS 114 small cell lung. The experiment in a line: NCI anticancer screen, dose series, 48 h.
On to `CCOC(=O)NC(=O)c1cn(CCCO)c(=O)[nH]c1=O`, for which the TGI was greater than 100 µM.
Same read-out and setting: for `CCN1c2ccccc2C(C(SC)S(=O)(=O)c2ccc(C)cc2)c2c1[nH]c(=O)n(C)c2=O` (stereo not given) the value was greater than 100 µM; for `COc1ccc(S(=O)(=O)NNS(C)(=O)=O)cc1`, greater than 100 µM.
Same read-out and setting: for `Nc1ncnc2c1nnn2C1OC(CO)C(O)C1O` (stereo not given) the value was 17.1 µM; for `CC(=O)OC1COC(n2ccc3cc(Br)c([N+](=O)[O-])cc32)C(OC(C)=O)C1OC(C)=O` (stereo not given), 94.1 µM.
Take `Cn1cnc([N+](=O)[O-])c1Sc1nc2ccccc2[nH]1`: the TGI amounted to 21.7 µM.
The molecule `COc1cc2c(c(OC)c1OC)-c1ccc(OC)c(=O)cc1C(NC(=O)c1ccc(N=[N+]=[N-])cc1)CC2` (stereo not given) registered a TGI of 0.0656 µM.
As to `CCCCCCCCC/C=C1\CCC(CN2CCOCC2)C1=O` (stereo not given), the TGI came out at 7.42 µM.
Same read-out and setting: for `C/C(=N\NC(=S)NC(CCC(=O)O)C(=O)O)c1ccccn1` (stereo not given) the value was greater than 100 µM.
Still for that read-out and setting: in the case of `CCOC(=O)C(=C=C=C(c1ccccc1)c1ccccc1)C(=O)OCC` it was 40.1 µM; in that of `Cn1c2ccccc2c2cc(-c3ccccc3)c3c(c21)C(=O)c1ccccc1C3=O`, 33.6 µM; in that of `OCc1ccc(-c2ccc(-c3ccc(CO)s3)o2)s1`, greater than 100 µM.
On the same count and under the same terms, in the case of `c1ccc(COc2cccc3ccc[n+](Cc4ccccc4)c23)cc1` it was 14.6 µM; in that of `CN(C)c1ccc(/C=C(\NC(=O)c2ccccc2)c2nc3ncncc3[nH]2)cc1`, greater than 100 µM; in that of `CCOC(=O)CC(=O)ON(C)C(C)=O`, greater than 100 µM.
Turning to `CCc1cc(Cc2cc(CC)c(NC(=O)C(=O)Cc3ccccn3)c(CC)c2Cl)c(Cl)c(CC)c1NC(=O)C(=O)Cc1ccccn1`, the TGI is greater than 100 µM.
In the case of `CC(C)OP(=O)(OC(C)C)C(=NCCN=C(NNc1ccc([N+](=O)[O-])cc1)P(=O)(OC(C)C)OC(C)C)NNc1ccc([N+](=O)[O-])cc1`, the TGI was greater than 100 µM.
The same measure, in the same setting: in the case of `COC(OC)C(C)CC(=O)N(C)C` (stereo not given) it was greater than 100 µM; in that of `CC(C)=Cc1cc(C(=O)Nc2ccc(Cl)c(Cl)c2)nc(N)n1`, greater than 100 µM.
Regarding `CC(=O)/C(=C\c1cccc([N+](=O)[O-])c1)C(=O)Nc1ccccc1C`, the TGI was greater than 100 µM.
Molecule `Clc1ccc(C(c2ccc(Cl)cc2)c2ccccn2)cc1` registered a TGI greater than 100 µM.
Same read-out and setting: for `C[Si](C)(C)C1(Sc2ccccc2)SCCCS1` the value was greater than 100 µM; for `O=c1cc(-c2ccccc2)oc2cc(OCCCOc3ccc4c(=O)cc(-c5ccccc5)oc4c3)ccc12`, greater than 100 µM.

A further assay relates to HS 578T breast. The assay can be described thus: NCI anticancer screen, dose series, 48 h.
With `Nc1ncnc2c1nnn2C1OC(CO)C(O)C1O` (stereo not given), the GI50 is 0.467 µM and the TGI was found to be 4.72 µM.
Molecule `COc1cc2c(c(OC)c1OC)-c1ccc(OC)c(=O)cc1C(NC(=O)c1ccc(N=[N+]=[N-])cc1)CC2` (stereo not given) returned a TGI greater than 100 µM.
Same read-out and setting: for `CCCCCCCCC/C=C1\CCC(CN2CCOCC2)C1=O` (stereo not given) the value was 5.47 µM; for `OCc1ccc(-c2ccc(-c3ccc(CO)s3)o2)s1`, 86.6 µM.
On the same count and under the same terms, in the case of `CC(C)(C)OC(=O)N[C@H]1CC2(C=C(Cl)C(=O)C(Cl)=C2)OC1=O` it was 75.5 µM.

The next assay deals with IGROV1 ovarian. The experiment in a line: NCI anticancer screen, dose series, 48 h.
`CCOC(=O)NC(=O)c1cn(CCCO)c(=O)[nH]c1=O` showed a TGI greater than 100 µM.
Same read-out and setting: for `CCN1c2ccccc2C(C(SC)S(=O)(=O)c2ccc(C)cc2)c2c1[nH]c(=O)n(C)c2=O` (stereo not given) the value was greater than 100 µM; for `COc1ccc(S(=O)(=O)NNS(C)(=O)=O)cc1`, greater than 100 µM.
On to `Nc1ncnc2c1nnn2C1OC(CO)C(O)C1O` (stereo not given), for which the TGI came out at 3.95 µM.
Still for that read-out and setting: for `CC(=O)OC1COC(n2ccc3cc(Br)c([N+](=O)[O-])cc32)C(OC(C)=O)C1OC(C)=O` (stereo not given) the value was greater than 100 µM; for `Cn1cnc([N+](=O)[O-])c1Sc1nc2ccccc2[nH]1`, 54.4 µM; for `COc1cc2c(c(OC)c1OC)-c1ccc(OC)c(=O)cc1C(NC(=O)c1ccc(N=[N+]=[N-])cc1)CC2` (stereo not given), greater than 100 µM.
Still for that read-out and setting: in the case of `CCCCCCCCC/C=C1\CCC(CN2CCOCC2)C1=O` (stereo not given) it was 14.8 µM; in that of `C/C(=N\NC(=S)NC(CCC(=O)O)C(=O)O)c1ccccn1` (stereo not given), greater than 100 µM.
Same read-out and setting: in the case of `CCOC(=O)C(=C=C=C(c1ccccc1)c1ccccc1)C(=O)OCC` it was 37.9 µM.
Turning to `Cn1c2ccccc2c2cc(-c3ccccc3)c3c(c21)C(=O)c1ccccc1C3=O`, the TGI is 58.5 µM.
The same measure, in the same setting: in the case of `OCc1ccc(-c2ccc(-c3ccc(CO)s3)o2)s1` it was 0.676 µM; in that of `c1ccc(COc2cccc3ccc[n+](Cc4ccccc4)c23)cc1`, 25.7 µM; in that of `CN(C)c1ccc(/C=C(\NC(=O)c2ccccc2)c2nc3ncncc3[nH]2)cc1`, greater than 100 µM.
On the same count and under the same terms, for `CCOC(=O)CC(=O)ON(C)C(C)=O` the value was greater than 100 µM; for `CCc1cc(Cc2cc(CC)c(NC(=O)C(=O)Cc3ccccn3)c(CC)c2Cl)c(Cl)c(CC)c1NC(=O)C(=O)Cc1ccccn1`, greater than 100 µM.
Same read-out and setting: for `CC(C)OP(=O)(OC(C)C)C(=NCCN=C(NNc1ccc([N+](=O)[O-])cc1)P(=O)(OC(C)C)OC(C)C)NNc1ccc([N+](=O)[O-])cc1` the value was 16.7 µM; for `COC(OC)C(C)CC(=O)N(C)C` (stereo not given), greater than 100 µM; for `CC(C)=Cc1cc(C(=O)Nc2ccc(Cl)c(Cl)c2)nc(N)n1`, greater than 100 µM.
Regarding `C#CC1(O)CCC2C3CCc4cc(Oc5nc(F)nc(-c6c7ccccc7c7sc8ccccc8n67)n5)ccc4C3CC[C@@]21C` (stereo not given in full), the TGI was greater than 100 µM.
On the same count and under the same terms, in the case of `CC(=O)/C(=C\c1cccc([N+](=O)[O-])c1)C(=O)Nc1ccccc1C` it was greater than 100 µM.

The record behind these values is PubChem BioAssay (NCI).
